# Test results as given in patent EP0290003A2, “Imidazoles” (Byk Gulden Lomberg Chemische Fabrik GmbH, priority 1987, dated 1988).
# Where two headings read alike, the source gives them in different places.
# System: modifizierten Shay-Ratte
# Assay: Antiulcerogenic and secretion-inhibiting effect in the modified Shay rat (pylorus ligation + oral acetylsalicylic acid)
# Type: in vivo
# Conditions: for Magenschutzwirkung: Minderung des Läsionsindexes (%) / Säuresekretionshemmung: Verringerung der HCl-Sekretion (%): versus control group, 4 h after pylorus ligation; for ED50: iv, 4 h, i.v.
# Description: Prüfung der antiulcerogenen und sekretionshemmenden Wirkung an der modifizierten Shay-Ratte
# In der folgenden Tabelle 1 ist der Einfluß der erfindungsgemäßen Verbindungen nach intravenöser (i. v.) Gabe auf die Läsionsbildung sowie die Säureausscheidung bei der modifizierten Shay-Ratte dargestellt.
# Die Ulcusprovokation erfolgt an 24 Stunden nüchternen Ratten (weiblich, 180-200 g, 4 Tiere je Käfig auf hohem Gitterrost) durch Pylorusligatur (unter Diethylethernarkose) und orale Applikation von 100 mg/10ml/kg Acetylsalicylsäure. Die zu prüfenden Substanzen werden intravenös (1 ml/kg) unmittelbar nach der Pylorusligatur verabreicht. Der Wundverschluß wird mittels Michelklammern vorgenommen. 4 Stunden danach erfolgt die Tötung der Tiere im Etherrausch durch Atlas-Dislokation und die Resektion des Magens.
# Der Magen wird längs der großen Kurvatur eröffnet und auf einer Korkplatte aufgespannt, nachdem zuvor die Menge des sezernierten Magensaftes (Volumen) und später sein HCl-Gehalt (Titration mit Natronlauge) bestimmt wird. Mit einem Stereomikroskop werden bei 10-facher Vergrößerung Anzahl und Größe (=Durch-messer) vorhandener Ulcera ermittelt. Das Produkt aus Schweregrad (gemäß nachfolgender Punkteskala) und Anzahl der Ulcera dient als individueller Läsionsindex.
# Als Maß für den antiulcerogenen Effekt dient die Minderung des mittleren Lä-sionsindex jeder behandelten Gruppe gegenüber dem der Kontrollgruppe (=100 %). Die ED50 bezeichnet diejenige Dosis, die den mittleren Lösionsindex bzw. die HCl-Sektetion gegenüber der Kontrolle um 50 % mindert.
# [1] = Rattus norvegicus, interpolated dose reducing the lesion index by 50 % versus control group, read-out: Magenschutzwirkung: ca. ED50 (µmol/kg) i.v.
# [2] = interpolated dose reducing the HCl secretion of the rat stomach by 50 % versus control group, read-out: Säuresekretionshemmung: ca. ED50 (µmol/kg) i.v.
SMILES,"Magenschutzwirkung: Minderung des Läsionsindexes (%) (Dosis 0,1 µmol/kg i.v.)","Säuresekretionshemmung: Verringerung der HCl-Sekretion (%) (Dosis 0,1 µmol/kg i.v.)","Magenschutzwirkung: Minderung des Läsionsindexes (%) (Dosis 0,3 µmol/kg i.v.)","Säuresekretionshemmung: Verringerung der HCl-Sekretion (%) (Dosis 0,3 µmol/kg i.v.)","Magenschutzwirkung: Minderung des Läsionsindexes (%) (Dosis 1,0 µmol/kg i.v.)","Säuresekretionshemmung: Verringerung der HCl-Sekretion (%) (Dosis 1,0 µmol/kg i.v.)","Magenschutzwirkung: Minderung des Läsionsindexes (%) (Dosis 3,0 µmol/kg i.v.)","Säuresekretionshemmung: Verringerung der HCl-Sekretion (%) (Dosis 3,0 µmol/kg i.v.)","Magenschutzwirkung: Minderung des Läsionsindexes (%) (Dosis 10,0 µmol/kg i.v.)","Säuresekretionshemmung: Verringerung der HCl-Sekretion (%) (Dosis 10,0 µmol/kg i.v.)",ED50 [1] [µmol/kg],ED50 [2] [µmol/kg],"Magenschutzwirkung: Minderung des Läsionsindexes (%) (Dosis 0,03 µmol/kg i.v.)","Säuresekretionshemmung: Verringerung der HCl-Sekretion (%) (Dosis 0,03 µmol/kg i.v.)"
"Cc1nc2c(OC3CCc4ccccc43)cccn2c1C (stereo not drawn) [Beispiel 1, 8-(2,3-Dihydro-1-indenyloxy)-2,3-dimethyl-imidazo[1,2-a]pyridin]",40,19,58,21,75,40,100,62,100,78,~0.2,~1.93,–,–
"Cc1nc2c(OC3CCc4ccccc43)cccn2c1CC#N (stereo not drawn) [Beispiel 4, 3-Cyanomethyl-8-(2,3-dihydro-1-indenyloxy)-2-methyl-imidazo[1,2-a]pyridin]",47,-10,64,26,86,27,100,83,–,–,~0.1,~1.34,38,3
